Reference: US9745314B2, “MDM2 inhibitors and therapeutic methods using the same” (THE REGENTS OF THE UNIVERSITY OF MICHIGAN, priority 2014, dated 2017)
Like-named read-outs stand apart in the source and are kept apart here.

Legend:
SJSA-1 cells = test: Cell growth assay (WST-8), SJSA-1; assay type: cell-based, human; conditions: for IC50: Homo sapiens, SJSA-1, 96 h, 4 days
SJSA-1 xenograft tumors = test: In vivo efficacy in SJSA-1 xenograft model; parameters: species or system C.B-17 SCID mice; conditions: for anti-tumor activity in mice bearing SJSA-1 xenograft tumors (in words): FIG. 2B
Method: In Vivo Efficacy Studies Using SJSA-Xenograft Models
SJSA-1 (osteosarcoma) tumor cells were harvested with Trypsin (0.05%)-EDTA (0.53 mM) (GIBCO™, Invitrogen Corp.), growth medium was added, and the cells were placed on ice. A cell sample was mixed 1:1 with Trypan Blue (GIBCO™, Invitrogen Corp.) and counted on a hemocytometer to determine the number of live/dead cells. Cells were washed once with 1×PBS (GIBCO™, Invitrogen Corp.) and resuspended in PBS. For Matrigel injections, after washing in PBS, cells are resuspended in an ice cold mixture of 1:1 PBS and Matrigel (BD Biosciences, Invitrogen Corp.) for a final Matrigel protein concentration of 5 mg/ml. SJSA-1 tumors were inoculated into C.B-17 SCID mice at 5×10^6 cells in 0.1 ml with Matrigel. Cells were injected s.c. into the flank region of each mouse using a 27 gauge needle.
The size of tumors growing in the mice was measured in two dimensions using calipers. Tumor volume (mm^3)=(A×B^2)/2 where A and B are the tumor length and width (in mm), respectively. During treatment, tumor volume and body weight was measured three times a week. After the treatment was stopped, tumor volume and body weight was measured at least once a week. Mice were kept for an additional 60 days for further observation of tumor growth and toxicity. The anti-tumor activity of compound No. 8 (administered via oral gavage) at different doses and according to different dosing schedules, including weekly for 3 weeks (qw*3 wks), every other day for 3 weeks, daily for 3 days out of a week for 3 weeks (qd1-3/w*3 wks), and daily for 2 weeks (qd*14 d), is shown in FIG. 3.

[1] = biological target: T1, recombinant human His-tagged MDM2 protein (residues 1-118) (Homo sapiens, UniProt Q00987); test: Fluorescence-polarization MDM2 competitive binding assay; conditions: for Ki: MDM2 (FP binding assay) Ki(nM), competitive FP
HCT116 p53 WT = test: Cell growth assay (WST-8), HCT116 p53 WT; assay type: cell-based; conditions: Homo sapiens, HCT-116, 96 h, 4 days
[2] = tested on: HCT116 p53 deleted (HCT116 p53−/−); test: Cell growth assay (WST-8), HCT116 p53 deleted; assay type: cell-based; conditions: Homo sapiens, HCT-116, 96 h, 4 days
[3] = biological target: T1, recombinant human His-tagged MDM2 protein (residues 1-118); test: biochemical
Saos2 = test: Cell growth assay (WST), Saos2; assay type: cell-based; conditions: Homo sapiens, SAOS-2, 96 h, Osteosarcoma, p53 null, 4 days, read-out: Cell Growth Inhibition (IC50) Saos2
RS4; 11 = test: Cell growth assay (WST), RS4;11; assay type: cell-based; conditions: Homo sapiens, RS4-11, 96 h, Leukemia, p53 wild-type, 4 days, read-out: Cell Growth Inhibition (IC50) RS4
LNCaP = test: Cell growth assay (WST), LNCaP; assay type: cell-based; conditions: Homo sapiens, 96 h, Prostate cancer, p53 wild-type, 4 days, read-out: Cell Growth Inhibition (IC50) LNCaP
PC3 = test: Cell growth assay (WST), PC3; assay type: cell-based; conditions: Homo sapiens, PC-3, 96 h, Prostate cancer, p53 null, 4 days, read-out: Cell Growth Inhibition (IC50) PC3
ZR-75-1 = test: Cell growth assay (WST), ZR-75-1; assay type: cell-based; conditions: Homo sapiens, ZR-75-1, 96 h, Breast cancer, p53 wild-type, 4 days, read-out: Cell Growth Inhibition (IC50) ZR-75-1
Method: Cells were seeded in 96-well flat bottom cell culture plates at a density of 2-3×10^3 cells/well with compounds and incubated for 4 days. […] 92037, USA).

[4] = Microsomal stability, mouse; assay type: in vitro ADME; conditions: mouse microsomes; read-out: Microsomal stability T1/2 (min) Mouse
[5] = Microsomal stability, rat; assay type: in vitro ADME; conditions: rat microsomes; read-out: Microsomal stability T1/2 (min) Rat
[6] = Microsomal stability, dog; assay type: in vitro ADME; conditions: dog microsomes; read-out: Microsomal stability T1/2 (min) Dog
[7] = Microsomal stability, human; assay type: in vitro ADME; conditions: human microsomes; read-out: Microsomal stability T1/2 (min) Human
[8] = Oral pharmacokinetics in Sprague-Dawley rats; conditions: rat, in vivo, 25 mg/kg oral
[9] = Stability of compounds in solution (UPLC); assay type: physicochemical; conditions: FIG. 1; 1:1 CH3CN/H2O, 1:1 MeOH/H2O, cell culture media
Method: Stability of Compounds in Solution
The stability of the compounds were determined in 1:1 MeOH:H2O, 1:1 CH3CN:H2O, and cell culture medium using ultra performance liquid chromatography.

[10] = WST-8, read-out: Cell Growth Inhibition IC50 (μM) SJSA-1
[11] = WST-8, read-out: Cell Growth Inhibition IC50 (μM) HCT116 p53 WT
[12] = WST-8, read-out: Cell Growth Inhibition IC50 (μM) HCT116 p53 deleted
[13] = Osteosarcoma, p53 wild-type, WST assay, read-out: Cell Growth Inhibition (IC50) SJSA-1
[14] = Colon cancer, p53 wild-type, WST assay, read-out: Cell Growth Inhibition (IC50) HCT116
[15] = Colon cancer, p53 knock-out, WST assay, read-out: Cell Growth Inhibition (IC50) HCT116 p53−/−

In the case of `O=C(O)c1ccc(NC(=O)[C@@H]2NC3(CCCCC3)[C@@]3(C(=O)Nc4cc(Cl)ccc43)[C@H]2c2cccc(Cl)c2F)cc1` [AA-MI-061, reference compound], the “cell growth inhibition in SJSA-1 cells (in words)” value (shortened to “cell growth inhibition”) (SJSA-1 cells) is reported as “potent cell growth inhibition”, the tumor regression (SJSA-1 xenograft tumors; 100 mg/kg, once, daily dosing, SCID mice bearing SJSA-1 xenografts (FIG. 2A)) is reported as 90% and the “binding affinity to MDM2 (in words)” value [1] is reported as “high binding affinity”.
In the case of `O=C(NC12CC(C(=O)O)(C1)C2)[C@@H]1NC2(CCCCC2)[C@@]2(C(=O)Nc3cc(Cl)ccc32)[C@H]1c1cccc(Cl)c1F` [Cpd No. 1], the “cell growth inhibition” value (SJSA-1 cells) is reported as “reduced potency”, the IC50 (SJSA-1 cells; [10]) is reported as 0.48 µM and the IC50 (HCT116 p53 WT; [11]) is reported as 3.7 µM. For the same compound, the IC50 [2, 12] was 12.6 µM, the IC50 [3] was 5.4 nM and the “binding affinity to MDM2 (in words)” value [1] was “high binding affinity”.
With `O=C(NC12CCC(C(=O)O)(CC1)CC2)[C@@H]1NC2(CCCCC2)[C@@]2(C(=O)Nc3cc(Cl)ccc32)[C@H]1c1cccc(Cl)c1F` [Cpd No. 2] the “cell growth inhibition” value (SJSA-1 cells) was “potent cell growth inhibition activity”, the IC50 (SJSA-1 cells; [10]) was 0.089 ± 0.033 µM and the IC50 (SJSA-1 cells; [13]) was 0.089 ± 0.033 µM. It also gave an IC50 (HCT116 p53 WT; [11]) of 0.137 ± 0.031 µM, an IC50 (HCT116 p53 WT; [14]) of 0.137 ± 0.031 µM and an IC50 [2, 12] of 14 ± 2 µM. It also gave an IC50 [2, 15] of 14 ± 2 µM, an IC50 (Saos2) of 26700 ± 5100 nM and an IC50 (RS4; 11) of 62 ± 26 nM. The IC50 (LNCaP) was 36 ± 19 nM, the IC50 (PC3) was 12300 ± 2500 nM and the IC50 (ZR-75-1) was 677 ± 252 nM. The “anti-tumor activity in mice bearing SJSA-1 xenograft tumors (in words)” value (from here on “anti-tumor activity”) (SJSA-1 xenograft tumors) was “only modest anti-tumor activity”, the half-life [4] was over 60 min and the half-life [5] was over 60 min. For the same compound, the half-life [6] was over 60 min, the half-life [7] was over 60 min and the AUC(0-inf) [8] was 74300 ± 5260 ng·h/mL. The AUC(0-t) [8] was 73600 ± 5020 ng·h/mL, the Cmax [8] was 8230 ± 278 ng/mL and the Tmax [8] was 3.33 ± 1.15 h. The half-life [8] was 4.29 ± 0.371 h, the IC50 [3] was 5.2 nM and the “binding affinity to MDM2 (in words)” value [1] was “high binding affinity”.
Work on `O=C(NC12CCC(C(=O)O)(CC1)CC2)[C@@H]1NC2(CCC(F)(F)CC2)[C@@]2(C(=O)Nc3cc(Cl)ccc32)[C@H]1c1cccc(Cl)c1F` [Cpd No. 3] yielded an IC50 (SJSA-1 cells; [10]) of 0.165 µM, an IC50 [3] of 8.8 nM and a Ki [1] of under 1 nM.
Work on `CS(=O)(=O)NC(=O)C12CCC(NC(=O)[C@@H]3NC4(CCCCC4)[C@@]4(C(=O)Nc5cc(Cl)ccc54)[C@H]3c3cccc(Cl)c3F)(CC1)CC2` [Cpd No. 4] yielded an IC50 (SJSA-1 cells; [10]) of 0.373 µM and an IC50 [3] of 7.9 nM.
In the case of `CC1(O)CCC2(CC1)N[C@@H](C(=O)NC13CCC(C(=O)O)(CC1)CC3)[C@H](c1cccc(Cl)c1F)[C@]21C(=O)Nc2cc(Cl)ccc21` (some centres unmarked) [Cpd No. 5], the IC50 [3] is reported as 131 nM and the Ki [1] is reported as 30 nM.
Compound `CC1(O)CCC2(CC1)N[C@@H](C(=O)NC13CCC(C(=O)O)(CC1)CC3)[C@H](c1cccc(Cl)c1F)[C@]21C(=O)Nc2cc(Cl)ccc21` (some centres unmarked) [Cpd No. 6] has an IC50 [3] of 7.3 nM and a Ki [1] of under 1 nM.
In the case of `CN1[C@@H](C(=O)NC23CCC(C(=O)O)(CC2)CC3)[C@H](c2cccc(Cl)c2F)[C@]2(C(=O)Nc3cc(Cl)ccc32)C12CCCCC2` [Cpd No. 7], the IC50 (ZR-75-1) is reported as 713 ± 165 nM, the “anti-tumor activity” value (SJSA-1 xenograft tumors) is reported as “complete and persistent tumor regression” and the half-life [4] is reported as over 60 min. The half-life [5] was over 60 min, the half-life [6] was over 60 min and the half-life [7] was over 60 min. It also gave an AUC(0-inf) [8] of 35400 ± 15500 ng·h/mL, an AUC(0-t) [8] of 35200 ± 15200 ng·h/mL and a Tmax [8] of 4 h. For the same compound, the half-life [8] was 3.89 ± 1.02 h, the “stability in solutions (in words)” value [9] was “stable in solutions” and the “binding affinity to MDM2 (in words)” value [1] was “high binding affinity”.
For `CCN1[C@@H](C(=O)NC23CCC(C(=O)O)(CC2)CC3)[C@H](c2cccc(Cl)c2F)[C@]2(C(=O)Nc3cc(Cl)ccc32)C12CCCCC2` [Cpd No. 8], the IC50 (SJSA-1 cells; [10]) was 0.06 ± 0.022 µM, the IC50 (SJSA-1 cells; [13]) was 0.06 ± 0.022 µM and the IC50 (HCT116 p53 WT; [11]) was 0.104 ± 0.036 µM. The IC50 (HCT116 p53 WT; [14]) was 0.104 ± 0.036 µM, the IC50 [2, 12] was 8 ± 1 µM and the IC50 [2, 15] was 8 ± 1 µM. The IC50 (Saos2) was 22700 ± 4700 nM, the IC50 (LNCaP) was 18 ± 13 nM and the IC50 (PC3) was 22000 ± 7200 nM. For the same compound, the IC50 (ZR-75-1) was 462 ± 36 nM, the “anti-tumor activity” value (SJSA-1 xenograft tumors) was “complete and persistent tumor regression” and the half-life [4] was over 60 min. It also gave a half-life [5] of over 60 min, a half-life [6] of over 60 min and a half-life [7] of over 60 min. For the same compound, the AUC(0-inf) [8] was 39500 ± 8520 ng·h/mL, the AUC(0-t) [8] was 39100 ± 8470 ng·h/mL and the Tmax [8] was 4 h. The half-life [8] was 4.61 ± 1.35 h, the “stability in solutions (in words)” value [9] was “stable in solutions” and the “binding affinity to MDM2 (in words)” value [1] was “high binding affinity”.
For `CN1[C@@H](C(=O)NC23CCC(C(N)=O)(CC2)CC3)[C@H](c2cccc(Cl)c2F)[C@]2(C(=O)Nc3cc(Cl)ccc32)C12CCCCC2` [Cpd No. 9], the IC50 (SJSA-1 cells; [10]) was 0.173 ± 0.031 µM, the IC50 (HCT116 p53 WT; [11]) was 0.266 ± 0.127 µM and the IC50 [2, 12] was 9 ± 1 µM. It also gave an IC50 [3] of 5.2 nM and a Ki [1] of under 1 nM.
